Tested on: human sperm penetration through human ovulatory cervical mucus
Test: Sperm penetration assay through ovulatory cervical mucus in capillaries (phase contrast microscopy)
Format: cell-based
Settings: for sperm penetration through mucus treated with poly-L-lysine (barrier reinforcing effect): PLL 5 mg/mL in 32.5 mM lactic acid solution, 30 minutes after exposure to undiluted sperm
Method: Semen samples of patients and volunteers collected at the Andrology, Sexual Medicine, Transmedicine, clinic (ANOVA, Karolinska University Hospital, Sweden) were run through standard semen kinematic analyses and sperm penetration assays no later than 3 h after collection. Data were obtained for the collection time, abstinence time, and semen volume. Semen was gently liquefied for 30 min on a rocker in an incubation chamber heated up to 37° C., after complete collection of ejaculates by masturbation. The viscosity of semen was determined visually and by pipetting. Semen was microscopically analysed by pipetting 6 μl of specimen in pre-warmed Leja® (Netherland) counting chamber slides (20 micron). Subsequently, specimens were assessed via clinical ECLIPSE 50i microscope (Nikon Instruments, Japan) equipped with stage heater MS 100 (37° C., Linkam Scientific Instruments, UK), 10× objective (Ph1) and 0.5× charge coupled device camera UI-1540LE-M-HQ (IDS Imaging Development Systems GmbH, Germany) with total magnification of 5×. The system was connected to the Computer Aided Semen Analysis software QualiSperm (v3.0.9.486, AKYmed, Switzerland). Beside the sperm concentration [106/m1], the progressive motility [%], motility [%], immotility [%], velocity [μm/s], sperm size [μm2], and number of cells were measured. Semen samples meeting the following criteria were included in this study: volume of >1.5 ml, concentration of >15×10^6/mland >40% progressive motility. These criteria reflect reference limits of the World Health Organization (WHO) (“WHO Laboratory Manual for the Examination and Processing of Human Semen” 2010) and values for normal spermatozoa as stated in Bjorndahl (Lars Bjorndahl. 2011. “What Is Normal Semen Quality? On the Use and Abuse of Reference Limits for the Interpretation of Semen Analysis Results.” Human Fertility 14 (3): 179-86). In each run, ten values were generated by assessing five fields in two chambers.
Ovulatory cervical mucus (CVM) (the CVM with highest penetrability) was collected from healthy donors at the Karolinska University Hospital. […]

For “poly-L-lysine [low molecular weight PLL]”, which “sperm penetration through mucus treated with poly-L-lysine (barrier reinforcing effect)” value is on record?
The value was “did not have any effect”.

With poly-L-lysine [66 KDa PLL] as the substance, how does the “sperm penetration through mucus treated with poly-L-lysine (barrier reinforcing effect)” value read?
Its value is “able to prevent the entrance of the sperm”.

What about the “point at which no sperm is seen (distance into the mucus)” value (sperm numbers assessed 30 minutes after exposure to undiluted sperm, polymer in lactic acid solution) of the same substance?
The value was “around 3 cm”.

Source: patent publication US20240082293A1, “A VAGINAL CONTRACEPTIVE COMPOSITION FOR REINFORCEMENT OF MUCUS BARRIER PROPERTIES” (CIRQLE BIOMEDICAL CONTRACEPTION ApS, priority 2019, published 2024)
